In PubChem BioAssay AID2060491 (Molecular Pharmacology Branch, DTP, NCI, 2025):
Each block holds one compound with its values, some of them ahead of it.

Tested on: 857933-349-R-J2-PDC complex spheroids, viability
Assay: Anticancer human tumor 857933-349-R-J2-PDC patient-derived colon adenocarcinoma cell line growth inhibition [GQUAD]
Conditions: for IC50: curve of first compound; for viability, T/C: stronger effect = lower value
Outline: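 Viability of tumor cells grown as complex spheroids with endothelial and stromal cells, exposed to drug combinations. Top concentration at or near clinical Cmax (else 10 microM), diluted in half-log increments.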

[1] = second compound 0.0316 µM, first compound 0.0316 µM
[2] = second compound 0.0316 µM, first compound 0.1 µM
[3] = second compound 0.0316 µM, first compound 0.316 µM
[4] = second compound 0.0316 µM, first compound 1 µM
[5] = second compound 0.0316 µM, first compound 3.16 µM
[6] = second compound 0.0316 µM, first compound 10 µM
[7] = second compound 0.1 µM, first compound 0.0316 µM
[8] = second compound 0.1 µM, first compound 0.1 µM
[9] = second compound 0.1 µM, first compound 0.316 µM
[10] = second compound 0.1 µM, first compound 1 µM
[11] = second compound 0.1 µM, first compound 3.16 µM
[12] = second compound 0.1 µM, first compound 10 µM
[13] = second compound 0.316 µM, first compound 0.0316 µM
[14] = second compound 0.316 µM, first compound 0.1 µM
[15] = second compound 0.316 µM, first compound 0.316 µM
[16] = second compound 0.316 µM, first compound 1 µM
[17] = second compound 0.316 µM, first compound 3.16 µM
[18] = second compound 0.316 µM, first compound 10 µM
[19] = second compound 1 µM, first compound 0.0316 µM
[20] = second compound 1 µM, first compound 0.1 µM
[21] = second compound 1 µM, first compound 0.316 µM
[22] = second compound 1 µM, first compound 1 µM
[23] = second compound 1 µM, first compound 3.16 µM
[24] = second compound 1 µM, first compound 10 µM
[25] = second compound 3.16 µM, first compound 0.0316 µM
[26] = second compound 3.16 µM, first compound 0.1 µM
[27] = second compound 3.16 µM, first compound 0.316 µM
[28] = second compound 3.16 µM, first compound 1 µM
[29] = second compound 3.16 µM, first compound 3.16 µM
[30] = second compound 3.16 µM, first compound 10 µM
[31] = second compound 10 µM, first compound 0.0316 µM
[32] = second compound 10 µM, first compound 0.1 µM
[33] = second compound 10 µM, first compound 0.316 µM
[34] = second compound 10 µM, first compound 1 µM
[35] = second compound 10 µM, first compound 3.16 µM
[36] = second compound 10 µM, first compound 10 µM
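Further: spheroids exposed to compounds for one week before readout.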
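Wherever viability, T/C is given: percent viability relative to vehicle DMSO wells taken as 100%.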

IC50 (second compound 0.0316 µM): 398 nM
IC50 (second compound 0.1 µM): 212 nM
IC50 (second compound 0.316 µM): < 31.6 nM
IC50 (second compound 1 µM): < 31.6 nM
IC50 (second compound 3.16 µM): < 31.6 nM
IC50 (second compound 10 µM): < 31.6 nM
Compound: COc1cccc2c1C(=O)c1c(O)c3c(c(O)c1C2=O)CC(O)(C(=O)CO)CC3OC1CC(N)C(O)C(C)O1 (stereo unspecified) + Cc1cnc(CNC(=O)c2c(=O)c3ccc(N4CCCN(C)CC4)nc3n3c2sc2ccccc23)cn1
viability, T/C [1]: 72.5%
viability, T/C [2]: 51.6%
viability, T/C [3]: 54.1%
viability, T/C [4]: 35.8%
viability, T/C [5]: 3.33%
viability, T/C [6]: 0.11%
viability, T/C [7]: 53%
viability, T/C [8]: 57.9%
viability, T/C [9]: 44.4%
viability, T/C [10]: 29.3%
viability, T/C [11]: 2.19%
viability, T/C [12]: 0.13%
viability, T/C [13]: 27.1%
viability, T/C [14]: 29.6%
viability, T/C [15]: 11.8%
viability, T/C [16]: 4.55%
viability, T/C [17]: 0.39%
viability, T/C [18]: 0.1%
viability, T/C [19]: 5.09%
viability, T/C [20]: 6.32%
viability, T/C [21]: 3.38%
viability, T/C [22]: 1.67%
viability, T/C [23]: 0.15%
viability, T/C [24]: 0.09%
viability, T/C [25]: 2.45%
viability, T/C [26]: 2.76%
viability, T/C [27]: 1.56%
viability, T/C [28]: 0.62%
viability, T/C [29]: 0.14%
viability, T/C [30]: 0.12%
viability, T/C [31]: 2.24%
viability, T/C [32]: 2.09%
viability, T/C [33]: 0.73%
viability, T/C [34]: 0.23%
viability, T/C [35]: 0.23%
viability, T/C [36]: 0.19%

IC50 (second compound 0.0316 µM): 168 nM
IC50 (second compound 0.1 µM): 154 nM
IC50 (second compound 0.316 µM): < 31.6 nM
IC50 (second compound 1 µM): < 31.6 nM
IC50 (second compound 3.16 µM): < 31.6 nM
IC50 (second compound 10 µM): < 31.6 nM
Compound: Nc1ccn(C2OC(CO)C(O)C2(F)F)c(=O)n1 (stereo unspecified) + Cc1cnc(CNC(=O)c2c(=O)c3ccc(N4CCCN(C)CC4)nc3n3c2sc2ccccc23)cn1
viability, T/C [1]: 75.9%
viability, T/C [2]: 52.3%
viability, T/C [3]: 46.6%
viability, T/C [4]: 9.53%
viability, T/C [5]: 6.32%
viability, T/C [6]: 3.33%
viability, T/C [7]: 63.6%
viability, T/C [8]: 61%
viability, T/C [9]: 32.8%
viability, T/C [10]: 9.17%
viability, T/C [11]: 3.78%
viability, T/C [12]: 2.52%
viability, T/C [13]: 28.4%
viability, T/C [14]: 18.3%
viability, T/C [15]: 10.9%
viability, T/C [16]: 3.62%
viability, T/C [17]: 2.32%
viability, T/C [18]: 1.88%
viability, T/C [19]: 5.32%
viability, T/C [20]: 4.52%
viability, T/C [21]: 2.56%
viability, T/C [22]: 1.63%
viability, T/C [23]: 1.61%
viability, T/C [24]: 1.61%
viability, T/C [25]: 2.51%
viability, T/C [26]: 2.77%
viability, T/C [27]: 1.64%
viability, T/C [28]: 1.52%
viability, T/C [29]: 1.19%
viability, T/C [30]: 0.24%
viability, T/C [31]: 1.6%
viability, T/C [32]: 1.03%
viability, T/C [33]: 1.41%
viability, T/C [34]: 0.26%
viability, T/C [35]: 0.21%
viability, T/C [36]: 0.2%

IC50 (second compound 0.0316 µM): 1500 nM
IC50 (second compound 0.1 µM): 859 nM
IC50 (second compound 0.316 µM): < 31.6 nM
IC50 (second compound 1 µM): < 31.6 nM
IC50 (second compound 3.16 µM): < 31.6 nM
IC50 (second compound 10 µM): < 31.6 nM
Compound: O=c1[nH]cc(F)c(=O)[nH]1 + Cc1cnc(CNC(=O)c2c(=O)c3ccc(N4CCCN(C)CC4)nc3n3c2sc2ccccc23)cn1
viability, T/C [1]: 95%
viability, T/C [2]: 95.9%
viability, T/C [3]: 87.3%
viability, T/C [4]: 60.8%
viability, T/C [5]: 30%
viability, T/C [6]: 18.9%
viability, T/C [7]: 72.2%
viability, T/C [8]: 84.7%
viability, T/C [9]: 64.8%
viability, T/C [10]: 47%
viability, T/C [11]: 26.3%
viability, T/C [12]: 13.6%
viability, T/C [13]: 25.4%
viability, T/C [14]: 29.3%
viability, T/C [15]: 22.8%
viability, T/C [16]: 15.7%
viability, T/C [17]: 11%
viability, T/C [18]: 5.17%
viability, T/C [19]: 5.21%
viability, T/C [20]: 5.61%
viability, T/C [21]: 4.05%
viability, T/C [22]: 4.64%
viability, T/C [23]: 4.34%
viability, T/C [24]: 3.5%
viability, T/C [25]: 2.29%
viability, T/C [26]: 3.17%
viability, T/C [27]: 3.1%
viability, T/C [28]: 2.6%
viability, T/C [29]: 3.16%
viability, T/C [30]: 3.13%
viability, T/C [31]: 1.93%
viability, T/C [32]: 2.51%
viability, T/C [33]: 2.25%
viability, T/C [34]: 1.52%
viability, T/C [35]: 2.21%
viability, T/C [36]: 1.32%
